Reference: US20230293544A1, “METHODS, DOSAGE REGIMENS, AND COMPOSITIONS FOR TREATING HIDRADENITIS” (PFIZER INC., priority 2022, published 2023)
Values joined by “and” are separate entries in the source; they are usually repeats but may differ in a detail not shown here. Equal entries are not always repeated.

Legend:
[1] = system: patients with moderate to severe HS; details: cited from earlier work
[2] = Population PK analysis in the phase 2A HS study; assay type: in vivo, human; details: preliminary population PK analysis
Method: Blood was collected to obtain the PK samples at pre-dose, Weeks 1, 2, 4, 6, 8, and 16, and at 0.5-, 1-, 2-, and 4-hours post-dose on Week 8. The available data was analyzed using population PK modeling.

[3] = system: human patients with moderate to severe hidradenitis suppurativa (HS); assay: Safety and tolerability in the phase 2A HS study (TEAEs, vital signs, laboratory abnormalities); assay type: in vivo
Method: The safety and tolerability of PF-06700841 over time was assessed using incidence of treatment-emergent adverse events (TEAEs), vital signs, incidence of specific clinical laboratory abnormalities including but not limited to hemoglobin, neutrophils, platelets, lymphocytes, lipids, eGFR, liver function tests (LFTs) and CPK.
All participants who received at least one dose of randomized study medication and have a baseline are included in the full analysis set (FAS), the population for the efficacy analysis. The safety analysis set (SAS) includes all participants who received at least one dose of investigational product. The HiSCR response data at week 16 comparing active treatment group and placebo group was to be analyzed using the Cochran Mantel Hanzel (CMH) test with Minimum Risk (MR) weight strategy after treating missing data as non-responders, adjusting for the stratification factor of prior anti-TNF failure status. Due to very small number of participants with concomitant use of antibiotics status at baseline in some subgroups, this was not included as stratum factor in the model. Hochberg's step-up procedure was employed to address any multiplicity arising from the analysis of 3 different treatments within the same study and overall familywise error rate was controlled at 0.1 level. All the continuous secondary endpoints were analyzed using ANCOVA model, where missing observation were imputed using multiple imputation (MI) method.

[4] = system: human patients with moderate to severe hidradenitis suppurativa (HS); assay: Phase 2A double-blind, parallel group study of efficacy vs placebo in hidradenitis suppurativa; assay type: in vivo
From the text: This study provided data on efficacy, safety, tolerability, and pharmacokinetics of the therapeutic agents being examined in the oral treatment of moderate to severe HS. […] This included an up-to-6-week Screening Period, a 16-week Dosing Period and a 4-week Follow-up Period. The study enrolled a total of approximately 192 participants (expected to provide approximately 156 completers). Following the screening period, participants who meet eligibility criteria at the baseline visit were randomly assigned to receive 1 of 6 treatments. One oral dose level of each therapeutic agent, one of which was [(1S)-2,2-difluorocyclo-propyl][(1R,5S)-3-{2-[(1-methyl-1H-pyrazol-4-yl)amino]pyrimidin-4-yl}-3,8-diazabicyclo[3.2.1]oct-8-yl]methanone (45 mg QD), or matching placebo in a 3:1 ratio was investigated. For analysis, placebo groups were combined to yield final therapeutic agent:placebo ratio of 1:1:1:1 for each therapeutic agent and pooled placebo. No more than 30% of enrolled participants were inadequate anti-TNF responders. Participants were stratified according to whether they were an inadequate anti-TNF responder or not.
Additionally, no more than 20% of enrolled participants entered the study on a background of concomitant oral antibiotic therapy for treatment of HS; the dosing regimen (dose and frequency) must have been stable for at least 8 weeks (56 days) prior to the baseline (Day 1) visit and remained stable throughout study participation. Antibiotics taken on an “as needed” (PRN) basis were not considered a stable dose. Participants were stratified according to whether they were on a background of concomitant antibiotic therapy or not. The chronic toxicology package for each asset supported the planned study treatment duration of 16 weeks. Hidradenitis suppurative clinical response, the primary endpoint used, is defined as: […]
at least a 50% reduction in the total abscess and inflammatory nodule (AN) count relative to baseline, and no increase in abscess count, and no increase in draining fistula count.
The above Examples were a phase 2A double-blind, parallel group study assessing the efficacy of PF-06700841, a dual inhibitor of human tyrosine kinase 2 (TYK2) and Janus kinase 1 (JAK1), compared to Placebo in human patients with moderate to severe hidradenitis suppurativa (HS).
This was a randomized, double-blind, parallel-group multi-center study that enrolled approximately 192 participants with moderate to severe HS (with approximately 156 completers). Participants were randomized to PF-06700841 (along with two other treatments studied contemporaneously) and matching placebo in a 3:1 ratio. Each randomized participant was followed for a 16-week dosing period and a 4-week follow-up period. For analysis, placebo groups were combined to yield a 1:1:1:1 ratio for each treatment and pooled placebo. No more than 30% participants were enrolled with inadequate anti-TNF response and no more that 20% of the participants were on background antibiotic therapy, and stratified randomization strategy was adopted for this study. Efficacy data from all randomized participants until week 16 are in the scope of this report.
The primary objective of the study was to evaluate the efficacy and safety of PF-06700841 vs placebo in participants with HS. The primary efficacy endpoint was percentage of participants with HiSCR response (50% reduction from baseline in abscess and inflammatory nodule (AN) count, with no increase in abscess and draining fistula count from baseline) at week 16. […]

Molecule | Rank-ordered secondary outcomes (lesions, pain, modified Sartorius score) vs placebo ([1]; Week 12, PIONEER II only) | Clinical response rate (HiSCR) at Week 12, PIONEER I ([1]; adalimumab weekly, PIONEER I, Week 12) [%] | Clinical response rate (HiSCR) at Week 12, PIONEER II ([1]; adalimumab weekly, PIONEER II, Week 12) [%] | Exposures in HS compared to healthy or other patient populations [2] | Safety and tolerability ([3]; 16-week dosing) | Deaths or cases of herpes zoster/simplex in the study ([3]; in vivo) | Severity of the majority of treatment-emergent adverse events (TEAEs) ([3]; in vivo) | Hazard ratio for time to first flare ([4]; Cox proportional model, vs placebo) | Difference from placebo in Skin Pain NRS30 response rate at week 16 ([4]; PGA-Skin Pain NRS at worst, participants with baseline score 3, LOCF) [%] | Probability of flare, Kaplan Meier plot of time to first flare (FIG. 5) ([4]; at 16 weeks, FAS, versus placebo) | HiSCR response rate at week 16 among Hurley Stage II participants ([4]; baseline Hurley Stage II, week 16) [%] | HiSCR response rate at week 16 among Hurley Stage III participants ([4]; baseline Hurley Stage III, week 16) [%] | More participants compared to placebo achieving total AN count of 0, 1 or 2 at week 16 ([4]; difference from placebo, week 16) [%] | Difference from placebo (δ) in percentage of participants experiencing at least one flare by week 16 ([4]; flare = at least 25% increase in AN count with minimum increase of 2 relative to baseline) [%] | Percentage of Participant Achieving HISCR Response at Week 16, Overall Response n/N (%) ([4]; overall population, FAS, NRI, week 16, 45 mg QD oral) | Difference from Placebo in percent change from baseline at week 16 for the IHS4 score ([4]; week 16) [%] | HiSCR response over time, plot (FIG. 2) ([4]; week 16, versus placebo)
adalimumab | significantly greater improvement than the placebo groups | 41.8 | 58.9 |  |  |  |  |  |  |  |  |  |  |  |  |  | 
Cn1cc(Nc2nccc(N3C[C@H]4CC[C@@H](C3)N4C(=O)[C@@H]3CC3(F)F)n2)cn1 [PF-06700841, [(1S)-2,2-difluorocyclo-propyl][(1R,5S)-3-{2-[(1-methyl-1H-pyrazol-4-yl)amino]pyrimidin-4-yl}-3,8-diazabicyclo[3.2.1]oct-8-yl]methanone] |  |  |  | expected exposures in HS appear to be achieved | generally safe and well tolerated | no deaths or cases of herpes zoster/simplex | mild and moderate | 0.4 | 6.5 | lowest probability of flare at 16 weeks | 59.4 | 40 | 15.6 | −22.3 | 51.9% and 27/52 (51.9) % | −14.6 | highest response at week 16
